Results as given in patent publication US7408065B2, “P2X7 receptor antagonists and their use” (AstraZeneca AB, priority 2003, dated 2008).

melting point | Compound
219 to 221 °C | O=C(CC1CCCCC1)Nc1c(Cl)ccc2nc(N3CC[C@H](O)C3)ccc12 [Example 29, N-[6-Chloro-2-[(3S)-3-hydroxy-1-pyrrolidinyl]-5-quinolinyl]-cyclohexaneacetamide]
201 to 206 °C | N[C@@H]1CCN(c2ccc3c(NC(=O)CC4CCCCC4)c(Cl)ccc3n2)C1 [Example 30, N-[2-[(3R)-3-Amino-1-pyrrolidinyl]-6-chloro-5-quinolinyl]-cyclohexaneacetamide]
219 to 226 °C | N[C@H]1CCN(c2ccc3c(NC(=O)CC4CCCCC4)c(Cl)ccc3n2)C1 [Example 31, N-[2-[(3S)-3-Amino-1-pyrrolidinyl]-6-chloro-5-quinolinyl]-cyclohexaneacetamide]
333 to 334 °C | NC1CCN(c2ccc3c(NC(=O)CC4CCCCC4)c(Cl)ccc3n2)CC1 [Example 32, N-[2-(4-Amino-1-piperidinyl)-6-chloro-5-quinolinyl]-cyclohexaneacetamide]
197 to 199 °C | O=C(CC1CCCCC1)Nc1c(Cl)ccc2nc(N3CC[C@@H](NCCO)C3)ccc12 [Example 34, N-[6-Chloro-2-[(3R)-3-[(2-hydroxyethyl)amino]-1-pyrrolidinyl]-5-quinolinyl]-cyclohexaneacetamide]
164 to 165 °C | CN[C@H]1CCN(c2ccc3c(NC(=O)CC4CCCCC4)c(Cl)ccc3n2)C1 [Example 35, N-[6-Chloro-2-[(3S)-3-(methylamino)-1-pyrrolidinyl]-5-quinolinyl]-cyclohexaneacetamide]
194 to 196 °C | O=C(CC1CCCCC1)Nc1c(Cl)ccc2nc(N3CC[C@H](NCCO)C3)ccc12 [Example 36, N-[6-Chloro-2-[(3S)-3-[(2-hydroxyethyl)amino]-1-pyrrolidinyl]-5-quinolinyl]-cyclohexaneacetamide]
223 to 224 °C | Cc1ccc2nc(N3CC[C@H](N)C3)ccc2c1NC(=O)CC1CCCCC1 [Example 38, N-[2-[(3S)-3-Amino-1-pyrrolidinyl]-6-methyl-5-quinolinyl]-cyclohexaneacetamide]
222 to 225 °C (dec.) | O=C(O)CNc1ccc2c(NC(=O)CC3CCCCC3)c(Cl)ccc2n1 [Example 40, N-[6-Chloro-5-[(cyclohexylacetyl)amino]-2-quinolinyl]-glycine]
222 to 224 °C (dec.) | O=C(O)CCNc1ccc2c(NC(=O)CC3CCCCC3)c(Cl)ccc2n1 [Example 41, N-[6-Chloro-5-[(cyclohexylacetyl)amino]-2-quinolinyl]-β-alanine]
206 to 208 °C | O=C(NCC1CCCCC1)c1c(Cl)ccc2nc(N3CC(O)C3)ccc12 [Example 53, 6-Chloro-N-(cyclohexylmethyl)-2-(3-hydroxy-1-azetidinyl)-5-quinolinecarboxamide]
127 to 128 °C | N[C@H]1CCN(c2ccc3c(C(=O)NCC4CCCCC4)cccc3n2)C1 [Example 54, 2-[(3S)-3-Amino-1-pyrrolidinyl]-N-(cyclohexylmethyl)-5-quinolinecarboxamide]
150 to 151 °C | O=C(NCC1CCCCC1)c1c(Cl)ccc2nc(N3CC(NCCO)C3)ccc12 [Example 55, 6-Chloro-N-(cyclohexylmethyl)-2-[3-[(2-hydroxyethyl)amino]-1-azetidinyl]-5-quinolinecarboxamide]
115 to 120 °C | CC(C)(C)OC(=O)N(CCO)[C@H]1CCN(c2ccc3c(NC(=O)CC4CCCCC4)c(Cl)ccc3n2)C1 [Example 56, [1-[6-Chlor-5-[(cyclohexylacetyl)amino]-2-quinolinyl]-3-pyrrolidinyl](2-hydroxyethyl)-carbamic Acid 1,1-dimethylethyl Ester]
165 °C | Cc1ccc2ncccc2c1C(=O)NCC1CCCCC1 [Example 57, N-(Cyclohexylmethyl)-6-methyl-5-quinolinecarboxamide]
160 °C (dec.) | N[C@H]1CCN(Cc2ccc3c(NC(=O)CC4CCCCC4)c(Cl)ccc3n2)C1 [Example 59, N-[2-[[(3S)-3-Amino-1-pyrrolidinyl]methyl]-6-chloro-5-quinolinyl]-cyclohexaneacetamide]
173 to 176 °C | N[C@H]1CCCN(c2ccc3c(NC(=O)CC4CCCCC4)c(Cl)ccc3n2)C1 [Example 60, N-[2-[(3S)-3-Amino-1-piperidinyl]-6-chloro-5-quinolinyl]-cyclohexaneacetamide]
182 to 183 °C | O=C(CC1CCCCC1)Nc1c(Cl)ccc2nc(N3CCC[C@H](NCCO)C3)ccc12 [Example 61, N-[6-Chloro-2-[(3S)-3-[(2-hydroxyethyl)amino]-1-piperidinyl]-5-quinolinyl]-cyclohexaneacetamide]
192 to 194 °C | N[C@H]1CCN(c2ccc3c(NC(=O)CCC4CCCC4)c(Cl)ccc3n2)C1 [Example 62, N-[2-[(3S)-3-Amin-1-pyrrolidinyl]-6-chloro-5-quinlinyl]-cyclopentanepropanamide]

melting point | Compound
186 to 188 °C | O=C(CCC1CCCC1)Nc1c(Cl)ccc2nc(N3CC[C@H](NCCO)C3)ccc12 [Example 63, N-[6-Chloro-2-[(3S)-3-[(2-hydroxyethyl)amino]-1-pyrrolidinyl]-5-quinolinyl]-cyclopentanepropanamide]
310 to 313 °C | O=C(CC1CCCCC1)Nc1c(Cl)ccc2nc(N3CCC(n4cn[nH]c4=O)CC3)ccc12 [Example 64, N-[6-Chloro-2-[4-(1,5-dihydro-5-oxo-4H-1,2,4-triazol-4-yl)-1-piperidinyl]-5-quinolinyl]-cyclohexaneacetamide]
216 to 220 °C | O=C(O)CCCc1ccc2c(NC(=O)CC3CCCCC3)c(Cl)ccc2n1 [Example 67, 6-Chloro-5-[(cyclohexylacetyl)amino]-2-quinolinebutanoic Acid]
242 to 244 °C | O=C(O)CC1CCN(c2ccc3c(NC(=O)CC4CCCCC4)c(Cl)ccc3n2)CC1 [Example 68, 1-[6-Chloro-5-[(cyclohexylacetyl)amino]-2-quinolinyl]-4-piperidineacetic Acid]
199 to 201 °C | O=C(O)CCCCc1ccc2c(NC(=O)CC3CCCCC3)c(Cl)ccc2n1 [Example 70, 6-Chloro-5-[(cyclohexylacetyl)amino]-2-quinolinepentanoic Acid]
157 to 160 °C | O=C(NCC1CCCCC1)c1c(Cl)ccc2nc(N3CCC[C@@H]3C(=O)O)ccc12 [Example 71, 1-[6-Chloro-5-[[(cyclohexylmethyl)amino]carbonyl]-2-quinolinyl]-D-proline]
253 to 256 °C | O=C(NCCC1CCCCC1)c1c(Cl)ccc2nc(N3CCC(C(=O)O)CC3)ccc12 [Example 76, 1-[6-Chloro-5-[[(2-cyclohexylethyl)amino]carbonyl]-2-quinolinyl]-4-piperidinecarboxylic Acid]
210 to 212 °C | CC1(CC(=O)Nc2c(Cl)ccc3nc(N4CCC(C(=O)O)CC4)ccc23)CCCCC1 [Example 79, 1-[6-Chloro-5-[[(1-methylcyclohexyl)acetyl]amino]-2-quinolinyl]-4-piperidinecarboxylic Acid]
185 to 186 °C | O=C(CC1CCCCC1)Nc1c(Cl)ccc2nc(N3CCCC(NCCO)C3)ccc12 (centres unmarked) [Example 80, N-[6-Chloro-2-[3-[(2-hydroxyethyl)amino]-1-piperidinyl]-5-quinolinyl]-cyclohexaneacetamide]
157 to 158 °C | O=C(CC1CCCCC1)Nc1c(Cl)ccc2nc(N3CCCC3CNCCO)ccc12 (centres unmarked) [Example 81, N-[6-Chloro-2-[2-[[(2-hydroxyethyl)amino]methyl]-1-pyrrolidinyl]-5-quinolinyl]-cyclohexaneacetamide]
158 to 159 °C | CNC1CCCN(c2ccc3c(NC(=O)CC4CCCCC4)c(Cl)ccc3n2)C1 (centres unmarked) [Example 82, N-[6-Chloro-2-[3-(methylamino)-1-piperidinyl]-5-quinolinyl]-cyclohexaneacetamide]
138 to 145 °C | CNCC1CCCN1c1ccc2c(NC(=O)CC3CCCCC3)c(Cl)ccc2n1 (centres unmarked) [Example 83, N-[6-Chloro-2-[2-[(methylamino)methyl]-1-pyrrolidinyl]-5-quinolinyl]-cyclohexaneacetamide]
257 to 259 °C | O=C(O)CN[C@H]1CCN(c2ccc3c(NC(=O)CC4CCCCC4)c(Cl)ccc3n2)C1 [Example 85, N-[(3S)-1-[6-Chloro-5-[(cyclohexylacetyl)amino]-2-quinolinyl]-3-pyrrolidinyl]-glycine]
204 to 207 °C | Cc1ccc2nc(N3CC[C@H](NCCO)C3)ccc2c1NC(=O)CC1CCCCC1 [Example 86, N-[2-[(3S)-3-[(2-Hydroxyethyl)amino]-1-pyrrolidinyl]-6-methyl-5-quinolinyl]-cyclohexaneacetamide]
178 to 200 °C | O=C(CC1CCCCC1)Nc1c(Cl)ccc2nc(N3CC[C@H](NS(=O)(=O)C(F)(F)F)C3)ccc12 [Example 88, N-[6-Chloro-2-[(3S)-3-[[(trifluoromethyl)sulfonyl]amino]-1-pyrrolidinyl]-5-quinolinyl]-cyclohexaneacetamide]
303 to 307 °C | CS(=O)(=O)NC(=O)N[C@H]1CCN(c2ccc3c(NC(=O)CC4CCCCC4)c(Cl)ccc3n2)C1 [Example 89, N-[6-Chloro-2-[(3S)-3-[[[(methylsulfonyl)amino]carbonyl]amino]-1-pyrrolidinyl]-5-quinolinyl]-cyclohexaneacetamide]
220 to 221 °C | O=C(CC1CCCCC1)Nc1c(Cl)ccc2nc(N3CC[C@H](NCCc4nnn[nH]4)C3)ccc12 [Example 101, N-[6-Chloro-2-[(3S)-3-[[2-(2H-tetrazol-5-yl)ethyl]amino]-1-pyrrolidinyl]-5-quinolinyl]-cyclohexaneacetamide]
275 °C | O=C(CC1CCCCC1)Nc1c(Cl)ccc2nc(N3CCC(c4nsc(=O)[nH]4)CC3)ccc12 [Example 103, N-[6-Chloro-2-[4-(4,5-dihydro-5-oxo-1,2,4-thiadiazol-3-yl)-1-piperidinyl]-5-quinolinyl]-cyclohexaneacetamide]
192 to 195 °C | O=C(CC1CCCCC1)Nc1c(Cl)ccc2nc(CCCCc3nnn[nH]3)ccc12 [Example 105, N-[6-Chloro-2-[4-(1H-tetrazol-5-yl)butyl]-5-quinolinyl]-cyclohexaneacetamide]
